The values that follow come from paper PMC6510487 (Chemosensors (Basel, Switzerland), 2018).

Assay [1] relates to human SIRPalpha. The assay is described as follows: Microscale thermophoresis binding of CD47 mimetic probe to hSIRPalpha. The note with it: 150 μM probe, 50 μM human SIRPalpha.
In assay [2] the test system is human SIRPalpha. As to the kind of experiment: Fluorescence response of CD47 mimetic probe upon hSIRPalpha binding. The note with it: 150 μM probe, 50 μM human SIRPalpha.

Ends that are not written are not given here.

Take EVTELTREGE [CD47 mimetic probe]: the “binding to hSIRPalpha by MST” value with human SIRPalpha [1] was “could bind to hSIRPalpha”. Moreover, the “fluorescence enhancement upon target binding to hSIRPalpha” value with human SIRPalpha [2] was “did not exhibit fluorescence enhancement”.
